*: point of attachment. Biotin = O=C1N[C@H]2[C@H](CS[C@H]2CCCCC(=O)*)N1
Test system: hair bulb keratinocytes
Assay: Detection of the hair bulb keratinocyte proliferation (test of Biol. Pharm. Bull., 28(3), 485-489, (2005))
Type: cell-based
Settings: relative to unsubstituted pentapeptide Gly-Pro-Ile-Gly-Ser
Description: In the test as described in Biol. Pharm.

Substance: 5-[(3aS,4S,6aR)-2-oxo-hexahydro-1H-thieno[3,4-d]imidazol-4-yl]pentanoyl-Gly-Pro-Ile-Gly-Ser-OH (Biotin-GPIGS-OH; SMILES CC[C@H](C)[C@H](NC(=O)[C@@H]1CCCN1C(=O)CNC(=O)CCCC[C@@H]1SC[C@@H]2NC(=O)N[C@@H]21)C(=O)NCC(=O)N[C@@H](CO)C(=O)O) [No. 9]
- keratinocyte growth test result, value superior in comparison with the corresponding value for Gly-Pro-Ile-Gly-Ser: 53%

From patent US20130209551A1, “PENTAPEPTIDE DERIVATIVES FOR PROMOTING HAIR GROWTH” (priority 2010, published 2013)
